In one data set the test system is secretion of ApoB in HepG2 cells. Kind of data set: Quantification of the secretion of ApoB. The format is cell-based. The settings on record: Homo sapiens, 24 hours of incubation with test compound, apoB immunoprecipitated from medium, read-out: pIC50 values (=−log IC50 value) (converted). Here is the method: HepG2 cells were cultured in 24-well plates in MEM Rega 3 containing 10% fetal calf serum. At 70% confluency, the medium was changed and the test compound or carrier (DMSO, 0.4% final concentration) was added. After 24 hours of incubation, the medium was transferred to Eppendorf tubes and cleared by centrifugation. A sheep antibody directed against either apoB was added to the supernatant and the mixture was kept at 8° C. for 24 hours. Then, rabbit anti-sheep antibody was added and the immune complex was allowed to precipitate for 24 hours at 8° C. The immunoprecipitate was pelleted by centrifugation for 25 minutes at 1320 g and washed twice with a buffer containing 40 mM Mops, 40 mM NaH2PO4, 100 mM NaF, 0.2 mM DTT, 5 mM EDTA, 5 mM EGTA, 1% Triton-X-100, 0.5% sodium deoxycholate (DOC), 0.1% SDS, 0.2 μM leupeptin and 0.2 μM PMSF. Radioactivity in the pellet was quantified by liquid scintillation counting.
Resulting IC50 values are enumerated in Table C.1.
One may read the IC50 as the concentration that gives 50% inhibition. Turning to `O=C(Nc1ccc(N2CCC(C(=O)NCc3ccccc3)CC2)cc1)c1ccccc1-c1ccc(C(F)(F)F)cc1` [Compound 1], the IC50 is 25.4 nM.
With `CC(C)(C)c1ccc(-c2ccccc2C(=O)Nc2ccc(N3CCC(CC(=O)NCc4ccccc4)CC3)cc2)cc1` [Compound 2], the IC50 was 6.04 nM.
The same measure, in the same setting: the value for `O=C(CC1CCN(c2ccc(NC(=O)c3ccccc3-c3ccc(C(F)(F)F)cc3)cc2)CC1)NCc1ccccc1` [Compound 3] was 3.56 nM.
For `CCNC(=O)C1CCN(c2ccc(NC(=O)c3ccccc3-c3ccc(C(F)(F)F)cc3)cc2)CC1` [Compound 4], the IC50 is 8.02 nM.
Same read-out and setting: the value for `CCNC(=O)CC1CCN(c2ccc(NC(=O)c3ccccc3-c3ccc(C(F)(F)F)cc3)cc2)CC1` [Compound 5] was 38.4 nM.
Same read-out and setting: to `CCNC(=O)C1CCN(c2ccc(NC(=O)c3ccccc3-c3ccc(C(C)(C)C)cc3)cc2)CC1` [Compound 6] belongs 11.6 nM.
The same measure, in the same setting: the value for `CCNC(=O)CC1CCN(c2ccc(NC(=O)c3ccccc3-c3ccc(C(C)(C)C)cc3)cc2)CC1` [Compound 7] was 2.39 nM.
On to `CC(C)(C)c1ccc(-c2ccccc2C(=O)Nc2ccc(N3CCC(C(=O)NCc4ccccc4)CC3)cc2)cc1` [Compound 8], for which the IC50 is 153 nM.
Take `COC(=O)C1CCN(c2ccc(NC(=O)c3ccccc3-c3ccc(C(F)(F)F)cc3)cc2)CC1` [Compound 9]: the IC50 was 619 nM.
Consider `CCOC(=O)CC1CCN(c2ccc(NC(=O)c3cccc(C)c3-c3ccc(C(F)(F)F)cc3)cc2)CC1` [Compound 10], for which the IC50 is 11.3 nM.
The same measure, in the same setting: the value for `COC(=O)CC1CCN(c2ccc(NC(=O)c3ccccc3-c3ccc(C(F)(F)F)cc3)cc2)CC1` [Compound 11] was 12.1 nM.
On the same count and under the same terms, the value for `CCOC(=O)CC1CCN(c2ccc(NC(=O)c3ccc(C)cc3-c3ccc(C(F)(F)F)cc3)cc2)CC1` [Compound 12] was 31.4 nM; that for `CCOC(=O)CC1CCN(c2ccc(NC(=O)c3ccccc3-c3ccc(C(F)(F)F)cc3)cn2)CC1` [Compound 13] was 89.5 nM; that for `CCOC(=O)CC1CCN(c2ccc(NC(=O)c3cccc(C)c3-c3ccc(C(F)(F)F)cc3)cn2)CC1` [Compound 14] was 9.29 nM.
Still for that read-out and setting: the value for `CCOC(=O)CC1CCN(c2ccc(NC(=O)c3ccc(C)cc3-c3ccc(C(F)(F)F)cc3)cn2)CC1` [Compound 15] was 25.6 nM.

Tested on in the next data set: not given
Assay: not given
Details: not given
One may read the melting point as the temperature of the solid-liquid transition. `CCOC(=O)CC1CCN(c2ccc(NC(=O)c3cccc(C)c3-c3ccc(C(F)(F)F)cc3)cn2)CC1` [Compound 14] registered a melting point of 134 to 137 °C.

(Values after US8258304B2, “N-aryl piperidine substituted biphenylcarboxamides” (Janssen Pharmaceutica N.V., priority 2002, dated 2012).)
